The values below come from ChEMBL document CHEMBL2074259, “Mouse reduced in osteosclerosis transporter functions as an organic anion transporter 3 and is localized at abluminal membrane of blood-brain barrier” (J Pharmacol Exp Ther, 2004).

Where a name gives a salt, the structure may show the parent alone.

For data set [1], the target named is T1, Organic anion transporter 3 (Mus musculus, UniProt O88909).
T1 sequence (O88909 whole entry): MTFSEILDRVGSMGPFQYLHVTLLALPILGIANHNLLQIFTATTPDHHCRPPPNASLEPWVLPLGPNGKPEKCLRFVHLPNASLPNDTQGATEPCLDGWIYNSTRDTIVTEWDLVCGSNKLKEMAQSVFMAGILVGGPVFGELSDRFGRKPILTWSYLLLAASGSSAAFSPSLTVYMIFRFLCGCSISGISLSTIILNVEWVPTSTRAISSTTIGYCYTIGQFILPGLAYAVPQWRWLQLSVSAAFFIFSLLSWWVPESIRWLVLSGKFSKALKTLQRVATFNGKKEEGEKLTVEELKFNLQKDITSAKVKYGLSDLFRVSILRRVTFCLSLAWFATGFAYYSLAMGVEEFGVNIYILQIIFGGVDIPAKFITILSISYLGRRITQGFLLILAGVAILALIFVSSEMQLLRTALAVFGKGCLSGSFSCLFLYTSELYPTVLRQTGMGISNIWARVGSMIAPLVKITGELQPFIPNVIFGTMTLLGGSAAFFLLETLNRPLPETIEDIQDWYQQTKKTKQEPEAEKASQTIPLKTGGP
Kind of data set: TP_TRANSPORTER: inhibition of benzylpenicillin uptake by Estradiol sulfate at a concentration of 5uM in Oat3-expressing oocyte cells. Format: functional, cell-based. On the set-up: scale not given: the % may be the effect or the level left.

In data set [2] the target is T1, Organic anion transporter 3. Kind of data set: TP_TRANSPORTER: inhibition of benzylpenicillin uptake by 5-Hydroxyindole-3-acetic acid at a concentration of 1000uM in Oat3-expressing oocyte cells. Format: functional, cell-based. Also noted: scale not given: the % may be the effect or the level left.
Data set [3] shares this target. As to the kind of experiment: TP_TRANSPORTER: inhibition of benzylpenicillin uptake by P-aminohippuric acid at a concentration of 1000uM in Oat3-expressing oocyte cells. It is filed as functional, cell-based. Also noted: scale not given: the % may be the effect or the level left.
Data set [4] shares this target. Kind of data set: (§1) TP_TRANSPORTER: uptake in Oat3-expressing oocyte cells. It is filed as functional, cell-based.
Data set [5] has as its target T2, Oat3 (organic anion transporter 3) (Mus musculus, UniProt O88909).
T2 sequence (O88909 whole entry): T1 sequence (O88909 whole entry)
As to the kind of experiment: in vitro. The following applies: Oat3-expressing oocytes, probe benzylpenicillin.

The target in data set [6] is T1, Organic anion transporter 3. Kind of data set: TP_TRANSPORTER: inhibition of benzylpenicillin uptake by Prostaglandin E2 at a concentration of 1000uM in Oat3-expressing oocyte cells. Also noted: scale not given: the % may be the effect or the level left. Format: functional, cell-based.
In data set [7] the target is T2, Oat3 (organic anion transporter 3). As to the kind of experiment: TP_TRANSPORTER: inhibition of benzylpenicillin uptake by Estradiol glucuronide sulfate at a concentration of 5uM in Oat3-expressing oocyte cells. Format: functional, cell-based. Also noted: scale not given: the % may be the effect or the level left. The settings on record: Oat3-expressing oocytes, probe benzylpenicillin; read-out: Activity.

Data set [8] addresses T1, Organic anion transporter 3. As to the kind of experiment: TP_TRANSPORTER: inhibition of benzylpenicillin uptake by Estrone-3-sulfate at a concentration of 1000uM in Oat3-expressing oocyte cells. It is filed as functional, cell-based. On the set-up: scale not given: the % may be the effect or the level left.
The target is the same in data set [9]. As to the kind of experiment: TP_TRANSPORTER: inhibition of benzylpenicillin uptake by Homovanillic acid at a concentration of 1000uM in Oat3-expressing oocyte cells. It is filed as functional, cell-based. On the set-up: scale not given: the % may be the effect or the level left.
For data set [10] the target is unchanged. Kind of data set: TP_TRANSPORTER: inhibition of benzylpenicillin uptake by Indomethacin at a concentration of 1000uM in Oat3-expressing oocyte cells. It is filed as functional, cell-based. On the set-up: scale not given: the % may be the effect or the level left.
Data set [11] shares this target. As to the kind of experiment: TP_TRANSPORTER: inhibition of benzylpenicillin uptake in Oat3-expressing oocyte cells. Format: functional, cell-based. Also noted: scale not given: the % may be the effect or the level left.
In data set [12] the target is T2, Oat3 (organic anion transporter 3). Kind of data set: TP_TRANSPORTER: inhibition of benzylpenicillin uptake by Indoxyl sulfate at a concentration of 1000uM in Oat3-expressing oocyte cells. Format: functional, cell-based. On the set-up: scale not given: the % may be the effect or the level left. The settings on record: Oat3-expressing oocytes, probe benzylpenicillin; read-out: Activity.

Data set [13] has the same target. Kind of data set: TP_TRANSPORTER: inhibition of benzylpenicillin uptake by Triiodothyronine at a concentration of 1000uM in Oat3-expressing oocyte cells. Format: functional, cell-based. On the set-up: scale not given: the % may be the effect or the level left. The following applies: Oat3-expressing oocytes, probe benzylpenicillin; read-out: Activity.
Data set [14] concerns the target T1, Organic anion transporter 3. Kind of data set: TP_TRANSPORTER: inhibition of benzylpenicillin uptake by Methotrexate at a concentration of 1000uM in Oat3-expressing oocyte cells. Format: functional, cell-based. On the set-up: scale not given: the % may be the effect or the level left.
Data set [15] addresses T2, Oat3 (organic anion transporter 3). Kind of data set: TP_TRANSPORTER: inhibition of benzylpenicillin uptake by Pravastatin at a concentration of 1000uM in Oat3-expressing oocyte cells. It is filed as functional, cell-based. On the set-up: scale not given: the % may be the effect or the level left. The settings on record: Oat3-expressing oocytes, probe benzylpenicillin; read-out: Activity.

Data set [16] addresses T1, Organic anion transporter 3. Kind of data set: TP_TRANSPORTER: inhibition of benzylpenicillin uptake by Probenecid at a concentration of 1000uM in Oat3-expressing oocyte cells. On the set-up: scale not given: the % may be the effect or the level left. It is filed as functional, cell-based.
For data set [17] the target is unchanged. As to the kind of experiment: TP_TRANSPORTER: inhibition of benzylpenicillin uptake by Bromosulfophthalein at a concentration of 1000uM in Oat3-expressing oocyte cells. On the set-up: scale not given: the % may be the effect or the level left. Format: functional, cell-based.
The target in data set [18] is T2, Oat3 (organic anion transporter 3). As to the kind of experiment: TP_TRANSPORTER: inhibition of benzylpenicillin uptake by Urate at a concentration of 1000uM in Oat3-expressing oocyte cells. The settings on record: Oat3-expressing oocytes, probe benzylpenicillin; read-out: Activity. On the set-up: scale not given: the % may be the effect or the level left. It is filed as functional, cell-based.

For data set [19], the target named is T1, Organic anion transporter 3. Kind of data set: TP_TRANSPORTER: inhibition of benzylpenicillin uptake by 3'-Azido-3'-deoxythymidine at a concentration of 1000uM in Oat3-expressing oocyte cells. Also noted: scale not given: the % may be the effect or the level left. Format: functional, cell-based.
Substrate in data set [20]: C[C@]12CC[C@@H]3c4ccc(O)cc4CC[C@H]3[C@@H]1CC[C@@H]2O[C@@H]1O[C@H](C(=O)O)[C@@H](O)[C@H](O)[C@H]1O
The data set is described as §1. It is filed as functional, cell-based.

Substrate in data set [21]: CC1(C)S[C@@H]2[C@H](NC(=O)Cc3ccccc3)C(=O)N2[C@H]1C(=O)O
Described as §1. Format: functional, cell-based.

Consider `C[C@]12CC[C@@H]3c4ccc(O)cc4CC[C@H]3[C@@H]1CC[C@H]2O.O=S(=O)(O)O`, for which the Activity in [1] worked out at 65.5%.

Take `O=C(O)Cc1c[nH]c2ccc(O)cc12`: in [2], the Activity came to 21.7%. Consider `Nc1ccc(C(=O)NCC(=O)O)cc1` [AMINOHIPPURIC ACID], for which the Activity in data set [3] is 14.2%; in [4], “substrate []”. `CN/C(=N/CCSCc1nc[nH]c1C)NC#N` [CIMETIDINE]: the Activity result in [4] is “substrate []”. In addition, the activity at 1000 µM in data set [5] stood at 6.88%. `CCCCC[C@H](O)/C=C/[C@H]1[C@H](O)CC(=O)[C@@H]1C/C=C\CCCC(=O)O` [DINOPROSTONE] registered an Activity in [6] of 0.101%. `C[C@]12CC[C@@H]3c4ccc(OS(=O)(=O)O)cc4CC[C@H]3[C@@H]1CC[C@@H]2O[C@@H]1O[C@H](C(=O)O)[C@@H](O)[C@H](O)[C@H]1O` [ESTRADIOL GLUCURONIDE SULFATE]: the activity at 5 µM in [7] worked out at 62.4%. Take `C[C@]12CC[C@@H]3c4ccc(OS(=O)(=O)O)cc4CC[C@H]3[C@@H]1CCC2=O` [ESTRONE SULFURIC ACID]: the Activity in data set [8] was 11.4%; in data set [4], “substrate []”. For `O=C(O)CCCC(=O)O` [GLUTARATE], the Activity result in [4] was “substrate []”.

Consider `COc1cc(CC(=O)O)ccc1O` [HOMOVANILLIC ACID], for which the Activity is 40.9% in data set [9] and “substrate []” in data set [4]. For `COc1ccc2c(c1)c(CC(=O)O)c(C)n2C(=O)c1ccc(Cl)cc1` [INDOMETHACIN], the Activity was 1.32% in [10] and “substrate []” in data set [4]. The molecule `O=C(O)[C@H]1O[C@@H](Oc2c[nH]c3ccccc23)[C@H](O)[C@@H](O)[C@@H]1O` [INDOXYL GLUCURONIDE] had an Activity in [11] of 72.3%. `O=S(=O)(O)Oc1c[nH]c2ccccc12` [INDOXYL SULFATE]: in data set [12], the activity at 1000 µM came out at 21.9%. In addition, the Activity result in [4] was “substrate []”.

Take `N[C@@H](Cc1cc(I)c(Oc2ccc(O)c(I)c2)c(I)c1)C(=O)O` [LIOTHYRONINE]: the activity at 1000 µM in data set [13] was 39.8%.

For `CN(Cc1cnc2nc(N)nc(N)c2n1)c1ccc(C(=O)N[C@@H](CCC(=O)O)C(=O)O)cc1` [METHOTREXATE], the Activity in data set [14] was 48.4%; in data set [4] it was “substrate []”. In the case of `CC[C@H](C)C(=O)O[C@H]1C[C@H](O)C=C2C=C[C@H](C)[C@H](CC[C@@H](O)C[C@@H](O)CC(=O)O)[C@H]21` [PRAVASTATIN], the activity at 1000 µM in data set [15] came to 2.85%.

Regarding `CCCN(CCC)S(=O)(=O)c1ccc(C(=O)O)cc1` [PROBENECID], in [16], the Activity turned out to be 0.625%. As for `O=C(O)c1ccccc1O` [SALICYLIC ACID], the Activity entry in data set [4] was “substrate []”. As to `O=C1OC(c2ccc(O)c(S(=O)(=O)[O-])c2)(c2ccc(O)c(S(=O)(=O)[O-])c2)c2c(Br)c(Br)c(Br)c(Br)c21.[Na+].[Na+]` [SULFOBROMOPHTHALEIN SODIUM], the Activity in data set [17] came out at 2.54%. As to `O=c1[nH]c(=O)c2[nH]c(=O)[nH]c2[nH]1` [URIC ACID], the activity at 1000 µM in data set [18] was determined as 19.9%. For `Cc1cn([C@H]2C[C@H](N=[N+]=[N-])[C@@H](CO)O2)c(=O)[nH]c1=O` [ZIDOVUDINE], the Activity in data set [19] came to 5.13%.

B1: Organic anion transporter 3 (Mus musculus) (protein)
chain: T1 sequence (O88909 whole entry)
By Km is commonly meant the substrate concentration at which the rate is half of its maximum. In the case of B1, the Km in data set [20] is 5.5 µM; in data set [21] it was 40 µM.
